# Assay results published in patent publication US20250177425A1, “SAIKOSAPONIN C AS COMPOSITION FOR TREATING OR PREVENTING AGE-RELATED VASCULAR DISEASES INCLUDING ARTERIOSCLEROSIS” (AGINGTARGET, INC., priority 2022, published 2025).
# Legend:
# Format in all cases: cell-based, human
# [1] = test system: ICAM-1 and VCAM-1 in HUVEC; test: Western blotting of adhesion proteins after TNF-α; details: 5 μM and 20 μM pretreatment 2 hours, TNF-α 20 ng/ml 8 hours
# Protocol: (§1) Specifically, two types of vascular endothelial cells, namely, HUVEC (human umbilical vein endothelial cells) and HCAEC (human coronary artery endothelial cells), were pretreated with Saikosaponin C at concentrations of 5 μM and 20 μM for 2 hours, and then treated with TNF-α (20 ng/ml) for 8 hours. Then, adhesion of monocyte-vascular endothelial cell and expression of cell adhesion molecules (ICAM-1, VCAM-1) of vascular endothelial cells were observed. […] The adhesion of monocyte-endothelial cells was evaluated by imaging analysis using a confocal microscope and fluorescence analysis using a microplate reader, and expression of adhesion proteins (ICAM-1 and VCAM-1) was evaluated by Western blotting.
# (§2) Calcein AM fluorescence was analyzed using a confocal microscope and a microplate reader, and the expression of cell adhesion proteins (ICAM-1, VCAM-1) were evaluated through Western blotting.
# (§3) FIGS. 9A and 9B show the results of analysis of monocyte-endothelial cell adhesion in two types of vascular endothelial cells (HUVEC, HCAEC) using a confocal microscope, and FIGS. 9C and 9D show the results of analysis of Calcein AM fluorescence (at an excitation wavelength of 488 nm, and at an emission wavelength of 517 nm) in the same experiment using a microplate reader. […]
# [2] = test system: ICAM-1 and VCAM-1 in HCAEC; test: Western blotting of adhesion proteins after TNF-α; details: 5 μM and 20 μM pretreatment 2 hours, TNF-α 20 ng/ml 8 hours
# Protocol: as §1, §2, §3
# HPAEC [3] = test: Fluorescence image analysis of high glucose-induced ROS generation; details: 5 μM and 20 μM pretreatment 2 hours, 33 mM high glucose 24 hours, dose-dependent
# Protocol: (§4) Similar to Experimental Example 1, a high-fat diet evaluation system at the cellular level was established.
# (§5) Specifically, two types of vascular endothelial cells, namely, HUVEC and HPAEC cells, were pretreated with Saikosaponin C at concentrations of 5 μM and 20 μM for 2 hours, and then treated with high glucose at a concentration of 33 mM for 24 hours. Then, hydrogen peroxide (H2O2) and superoxide anion (O2^⋅−) generated in the cytoplasm and mitochondria were measured using each fluorescent probe. In addition, samples treated with 100 μM hydrogen peroxide (a ROS-inducing agent) for 1 hour and then treated for an additional 23 hours after medium change were used as positive control groups.
# (§6) Different analytical reagents were used depending on the type of ROS and the intracellular location where they were generated. Specifically, cytosolic hydrogen peroxide, cytosolic superoxide anion, mitochondrial hydrogen peroxide, and mitochondrial superoxide anion were measured using H2DCFDA (2,7-dichlorodihydrofluorescein diacetate), DHE (dihydroethidium), DHR (dihydrorhodamine 123), and Mito-SOX reagents, respectively. The H2DCFDA (1 μM, 45 min staining), DHE (10 µM, 60 min staining), DHR (20 µM, 30 min staining), and Mito-SOX (5 μM, 10 min staining) were used as ROS-specific fluorescent probes for fluorescence image analysis.
# HUVEC [4] = test: as above; details: 5 μM and 20 μM pretreatment 2 hours, 33 mM high glucose 24 hours, dose-dependent
# Protocol: as §4, §5, §6
# HPAEC [5] = test: Cell cycle analysis by flow cytometry (PI), high glucose-induced G1 phase arrest; details: 5 μM and 20 μM pretreatment 2 hours, 33 mM high glucose 48 hours, dose-dependent
# Protocol: as §4
# (§7) Specifically, two types of vascular endothelial cells, namely, HUVEC and HPAEC cells, were pretreated with Saikosaponin C at concentrations of 5 μM and 20 μM for 2 hours, then treated with high glucose (33 mM) for 48 hours, and then immobilized with cold 70% ethanol. The DNA of the immobilized vascular endothelial cells was stained with PI (propidium iodide, 50 μg/ml) solution and the cell cycle was analyzed using a flow cytometer. In addition, the expression of cell cycle regulatory proteins such as p21, p27, and p16 was analyzed after treatment with high glucose (33 mM) for 36 hours.
# (§8) Since cellular senescence is closely related to the arrest in the G1 phase of the cell cycle, the cell cycle was evaluated using flow cytometry (FIG. 4A and FIG. 4B). In addition, the expression of p21, p27, and p16 proteins, which are G1 phase growth arrest-inducing proteins, was measured through Western blotting (FIG. 4C, FIG. 4D).
# HUVEC [6] = test: as above; details: 5 μM and 20 μM pretreatment 2 hours, 33 mM high glucose 48 hours, dose-dependent
# Protocol: as §4, §7, §8
# HPAEC [7] = test: SA-β-gal staining, high glucose-induced senescence; details: 5 μM and 20 μM pretreatment 2 hours, 33 mM high glucose 72 hours, dose-dependent
# Protocol: as §4
# (§9) Specifically, two types of vascular endothelial cells, namely, HUVEC and HPAEC cells, were pretreated with Saikosaponin C at concentrations of 5 μM and 20 μM for 2 hours, and then treated with high glucose at a concentration of 33 mM for 72 hours (for SA-β-gal staining) or 48 hours (for vascular senescence marker protein analysis). Then, the degree of cellular senescence was measured through SA-β-gal staining and measured as the ratio of the total cells to cells stained in blue (SA-β-gal positive). In addition, the expression of vascular senescence marker proteins such as PAI-1, ICAM-1, and VCAM-1 was analyzed.
# (§10) Specifically, the senescence of vascular endothelial cells was evaluated by SA-β-gal staining to measure the activity of β-galactosidase, which is an enzyme present in the lysosome, an organelle within the cell (FIG. 3C and FIG. 3D) and this was represented as a graph (FIG. 3A and FIG. 3B). In addition, FIGS. 3E and 3F show the results of Western blotting to determine the expression of vascular senescence marker proteins such as PAI-1, ICAM-1, and VCAM-1 in two types of vascular endothelial cells (HUVEC, HPAEC).
# HUVEC [8] = test: SA-β-gal staining, high glucose-induced senescence; details: 5 μM and 20 μM pretreatment 2 hours, 33 mM high glucose 72 hours, dose-dependent
# Protocol: as §4, §9, §10
# [9] = test system: p21, p27, and p16 in HPAEC; test: Western blotting of G1 phase growth arrest-inducing proteins; details: 5 μM and 20 μM pretreatment 2 hours, 33 mM high glucose 36 hours, dose-dependent
# Protocol: as §4, §7, §8
# [10] = test system: p21, p27, and p16 in HUVEC; test: as above; details: 5 μM and 20 μM pretreatment 2 hours, 33 mM high glucose 36 hours, dose-dependent
# Protocol: as §4, §7, §8
smiles,measurement,setting,value
CC1O[C@@H](O[C@@H]2C(CO[C@@H]3OC(CO)[C@@H](O)C(O)C3O)O[C@@H](O[C@H]3CC[C@]4(C)[C@H]5C=C[C@]67OC[C@@]8(CCC(C)(C)C[C@H]86)[C@@H](O)C[C@@]7(C)[C@]5(C)CC[C@H]4C3(C)C)C(O)C2O)C(O)C(O)[C@H]1O (stereo partly shown) [Saikosaponin C],"expression of adhesion proteins (ICAM-1, VCAM-1) of vascular endothelial cells",[1],inhibited
same,"expression of adhesion proteins (ICAM-1, VCAM-1) of vascular endothelial cells",[2],inhibited
same,high glucose-induced ROS generation (cytosolic and mitochondrial hydrogen peroxide and superoxide anion),HPAEC [3],significantly suppressed
same,high glucose-induced ROS generation (cytosolic and mitochondrial hydrogen peroxide and superoxide anion),HUVEC [4],significantly suppressed
same,high glucose-induced G1 phase arrest,HPAEC [5],significantly abolished
same,high glucose-induced G1 phase arrest,HUVEC [6],significantly abolished
same,high glucose-induced SA-β-gal positive cells,HPAEC [7],significantly reduced
same,high glucose-induced SA-β-gal positive cells,HUVEC [8],significantly reduced
same,"high glucose-induced increase in the expression of p21, p27, and p16 proteins",[9],significantly abolished
same,"high glucose-induced increase in the expression of p21, p27, and p16 proteins",[10],significantly abolished
